Laboratory results taken from PubChem BioAssay (NCI).
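Assay format: 96-well plates, 48-hour exposure. Definition used: TGI = concentration required for complete inhibition of growth.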

What was measured:
Experiment in all cases: NCI anticancer screen, dose series, 48 h
[1] = test system: UACC-62 melanoma
[2] = test system: HOP-92 NSCLC
[3] = test system: HCT-15 colon
[4] = test system: HL-60(TB) leukemia
[5] = test system: HT29 colon
[6] = test system: SN12C renal
[7] = test system: CAKI-1 renal
[8] = test system: OVCAR-4 ovarian
[9] = test system: LOX IMVI melanoma
[10] = test system: SNB-19 CNS
[11] = test system: IGROV1 ovarian
[12] = test system: UACC-257 melanoma
[13] = test system: SK-OV-3 ovarian
[14] = test system: K-562 leukemia
[15] = test system: HCC-2998 colon
[16] = test system: TK-10 renal
[17] = test system: COLO 205 colon
[18] = test system: SW-620 colon
[19] = test system: U251 CNS
[20] = test system: M19-MEL melanoma
[21] = test system: 786-0 renal
[22] = test system: DLD-1 colon
[23] = test system: EKVX NSCLC
[24] = test system: SK-MEL-28 melanoma
[25] = test system: OVCAR-3 ovarian
[26] = test system: KM20L2 colon
[27] = test system: DMS 273 small cell lung
[28] = test system: RPMI-8226 leukemia
[29] = test system: SF-539 CNS
[30] = test system: SK-MEL-5 melanoma
[31] = test system: SNB-78 CNS
[32] = test system: NCI-H460 lung
[33] = test system: MOLT-4 leukemia
[34] = test system: DMS 114 small cell lung
[35] = test system: LXFL 529 NSCLC
[36] = test system: CCRF-CEM leukemia
[37] = test system: A549 NSCLC
[38] = test system: SF-295 CNS
[39] = test system: SNB-75 CNS
[40] = test system: HOP-18 NSCLC
[41] = test system: A498 renal
[42] = test system: HCT-116 colon
[43] = test system: ACHN renal
[44] = test system: HOP-62 NSCLC
[45] = test system: OVCAR-8 ovarian
[46] = test system: M14 melanoma
[47] = test system: MALME-3M melanoma
[48] = test system: OVCAR-5 ovarian
[49] = test system: UO-31 renal
[50] = test system: NCI-H23 lung
[51] = test system: NCI-H226 lung
[52] = test system: SF-268 CNS
[53] = test system: KM12 colon
[54] = test system: RXF 393 renal
[55] = test system: NCI-H522 lung
[56] = test system: SR leukemia
[57] = test system: SK-MEL-2 melanoma
[58] = test system: NCI/ADR-RES ovarian
[59] = test system: PC-3 prostate
[60] = test system: MDA-N
[61] = test system: MDA-MB-435
[62] = test system: HS 578T breast
[63] = test system: BT-549 breast
[64] = test system: MCF7 breast
[65] = test system: T-47D breast
[66] = test system: DU-145 prostate
[67] = test system: MDA-MB-231 breast

CCOC(=O)NC(=O)c1cn(CCCOC(=O)NCCCCCCNC(=O)OCCCn2cc(C(=O)NC(=O)OCC)c(=O)[nH]c2=O)c(=O)[nH]c1=O
TGI [1]: 38.8 µM | TGI [2]: 45.6 µM | TGI [3]: 65.1 µM | TGI [4]: 41.7 µM | TGI [5]: > 100 µM | TGI [6]: > 100 µM | TGI [7]: 35 µM | TGI [8]: 29.6 µM | TGI [9]: > 100 µM | TGI [10]: 77.6 µM | TGI [11]: > 100 µM | TGI [12]: 37 µM | TGI [13]: > 100 µM | TGI [14]: 39.8 µM | TGI [15]: > 100 µM | TGI [16]: 68.5 µM | TGI [17]: 41 µM | TGI [18]: 93.6 µM | TGI [19]: 33.6 µM | TGI [20]: > 100 µM | TGI [21]: 49.9 µM | TGI [22]: > 100 µM | TGI [23]: > 100 µM | TGI [24]: 88.9 µM | TGI [25]: 42.4 µM | TGI [26]: > 100 µM | TGI [27]: > 100 µM | TGI [28]: 39.2 µM | TGI [29]: 44.5 µM | TGI [30]: > 100 µM | TGI [31]: > 100 µM | TGI [32]: > 100 µM | TGI [33]: 90.3 µM | TGI [34]: 34.1 µM | TGI [35]: > 100 µM | TGI [36]: > 100 µM | TGI [37]: > 100 µM | TGI [38]: 49.4 µM | TGI [39]: 45.2 µM | TGI [40]: > 100 µM | TGI [41]: 44.1 µM | TGI [42]: > 100 µM | TGI [43]: 32.9 µM | TGI [44]: > 100 µM | TGI [45]: > 100 µM | TGI [46]: 35.4 µM

COc1ccccc1C(N)c1ccccc1 (stereo unspecified)
TGI [1]: > 100 µM | TGI [2]: > 100 µM | TGI [3]: > 100 µM | TGI [4]: > 100 µM | TGI [5]: > 100 µM | TGI [6]: > 100 µM | TGI [47]: > 100 µM | TGI [8]: > 100 µM | TGI [9]: > 100 µM | TGI [10]: > 100 µM | TGI [11]: > 100 µM | TGI [12]: > 100 µM | TGI [13]: > 100 µM | TGI [14]: > 100 µM | TGI [15]: > 100 µM | TGI [16]: > 100 µM | TGI [17]: > 100 µM | TGI [18]: > 100 µM | TGI [19]: > 100 µM | TGI [20]: > 100 µM | TGI [21]: > 100 µM | TGI [22]: > 100 µM | TGI [23]: > 100 µM | TGI [48]: > 100 µM | TGI [24]: > 100 µM | TGI [25]: > 100 µM | TGI [26]: > 100 µM | TGI [27]: > 100 µM | TGI [28]: > 100 µM | TGI [29]: > 100 µM | TGI [30]: > 100 µM | TGI [31]: > 100 µM | TGI [49]: > 100 µM | TGI [32]: > 100 µM | TGI [33]: > 100 µM | TGI [34]: > 100 µM | TGI [50]: > 100 µM | TGI [51]: > 100 µM | TGI [35]: > 100 µM | TGI [36]: > 100 µM | TGI [37]: > 100 µM | TGI [38]: > 100 µM | TGI [39]: > 100 µM | TGI [40]: > 100 µM | TGI [52]: > 100 µM | TGI [41]: > 100 µM | TGI [42]: > 100 µM | TGI [43]: > 100 µM | TGI [44]: > 100 µM | TGI [45]: > 100 µM | TGI [53]: > 100 µM | TGI [54]: > 100 µM | TGI [46]: > 100 µM | TGI [55]: > 100 µM

COc1ccc(C(=O)C(C(=O)C(=O)NC2C3CC4CC(C3)CC2C4)c2ccc(OC)cc2)cc1 (stereo unspecified)
TGI [1]: > 100 µM | TGI [2]: > 100 µM | TGI [3]: > 100 µM | TGI [4]: > 100 µM | TGI [5]: > 100 µM | TGI [6]: > 100 µM | TGI [47]: > 100 µM | TGI [7]: > 100 µM | TGI [8]: > 100 µM | TGI [9]: > 100 µM | TGI [10]: > 100 µM | TGI [11]: > 100 µM | TGI [12]: > 100 µM | TGI [13]: > 100 µM | TGI [14]: > 100 µM | TGI [15]: > 100 µM | TGI [16]: > 100 µM | TGI [17]: > 100 µM | TGI [18]: > 100 µM | TGI [19]: > 100 µM | TGI [20]: > 100 µM | TGI [21]: > 100 µM | TGI [56]: > 100 µM | TGI [22]: > 100 µM | TGI [23]: > 100 µM | TGI [48]: > 100 µM | TGI [24]: > 100 µM | TGI [25]: > 100 µM | TGI [26]: > 100 µM | TGI [27]: > 100 µM | TGI [28]: > 100 µM | TGI [29]: > 100 µM | TGI [30]: > 100 µM | TGI [31]: > 100 µM | TGI [49]: > 100 µM | TGI [32]: > 100 µM | TGI [33]: > 100 µM | TGI [34]: > 100 µM | TGI [50]: > 100 µM | TGI [51]: > 100 µM | TGI [35]: > 100 µM | TGI [36]: > 100 µM | TGI [37]: > 100 µM | TGI [38]: > 100 µM | TGI [39]: > 100 µM | TGI [40]: > 100 µM | TGI [52]: > 100 µM | TGI [41]: > 100 µM | TGI [42]: > 100 µM | TGI [43]: > 100 µM | TGI [44]: > 100 µM | TGI [45]: > 100 µM | TGI [53]: > 100 µM | TGI [46]: > 100 µM | TGI [57]: > 100 µM | TGI [55]: > 100 µM

O=C1/C(=C/c2ccc(Cl)cc2)N=C(c2ccccc2)N1c1nc2c(Cl)cc(Cl)cc2s1
TGI [1]: > 100 µM | TGI [2]: 71.6 µM | TGI [3]: > 100 µM | TGI [4]: 43.1 µM | TGI [5]: 55.7 µM | TGI [6]: 57.8 µM | TGI [58]: 81.3 µM | TGI [7]: > 100 µM | TGI [8]: > 100 µM | TGI [9]: 53.4 µM | TGI [10]: > 100 µM | TGI [11]: > 100 µM | TGI [12]: > 100 µM | TGI [13]: > 100 µM | TGI [14]: > 100 µM | TGI [15]: > 100 µM | TGI [16]: > 100 µM | TGI [17]: > 100 µM | TGI [59]: 45.9 µM | TGI [18]: > 100 µM | TGI [60]: 39.2 µM | TGI [19]: 50.9 µM | TGI [21]: > 100 µM | TGI [56]: 42.5 µM | TGI [23]: 68.9 µM | TGI [48]: > 100 µM | TGI [24]: > 100 µM | TGI [25]: 50.9 µM | TGI [61]: 86.2 µM | TGI [28]: > 100 µM | TGI [29]: 46.1 µM | TGI [62]: 90.1 µM | TGI [30]: 57.9 µM | TGI [49]: 79.8 µM | TGI [32]: > 100 µM | TGI [33]: 24.7 µM | TGI [63]: 82.9 µM | TGI [64]: > 100 µM | TGI [65]: 70.2 µM | TGI [36]: 20.7 µM | TGI [37]: 68.7 µM | TGI [38]: > 100 µM | TGI [39]: 64.9 µM | TGI [66]: > 100 µM | TGI [52]: > 100 µM | TGI [41]: 50.2 µM | TGI [42]: 50.8 µM | TGI [43]: > 100 µM | TGI [44]: > 100 µM | TGI [45]: > 100 µM | TGI [53]: > 100 µM | TGI [67]: 92.3 µM | TGI [54]: 62 µM | TGI [46]: > 100 µM | TGI [57]: 55.5 µM
